According to patent EP1070454A1, “TRANSGENIC ANIMAL SHOWING VASCULAR TISSUE-SPECIFIC EXPRESSION OF ANGIOTENSIN II2 RECEPTOR” (SUNTORY LIMITED, priority 1999, dated 2000):

How the values were obtained:
[1] = test system: isolated aorta; experiment: Angiotensin II-induced contraction of isolated aorta (rings in myograph); format: cell-based, mice; conditions: for Angiotensin II-induced vasoconstriction: isolated abdominal aorta rings, mean ± SE
Protocol: AngII-induced contraction of isolated aortic vessels was compared between transgenic and wild-type mice. After abdominal incision of each mouse, the abdominal aorta was isolated and cut into rings, which were then suspended under a constant tension of 0.8 g in a myograph. Change of vascular tension after addition of AngII was recorded under perfusion with Tyrode's solution (137 mmol/L NaCl, 2.7 mmol/L KCl, 1.8 mmol/L CaCl2, 1.1 mmol/L MgCl2, 0.42 mmol/L NaH2PO4, 12 mmol/L NaHCO3 and 5.7 mmol/L glucose, pH 7.4) (Table 2). AngII-induced contraction of isolated aorta increased by about 24% in AT2-TG mice in the presence of an AT2 receptor inhibitor (PD123319, 1-[[4-(dimethylamino)-3-methylphenyl]methyl]-5-(diphenylacetyl)-4,5,6,7-tetrahydro-1H-imidazo[4,5-c]pyridine-6-carboxylic acid ditrifluoroacetate monohydrate available from PARKE-DAVIS, Ann Arbor, Michigan) as compared with the contraction in its absence.

[2] = test system: cGMP production in isolated aorta; experiment: Angiotensin II-induced cGMP production in isolated aorta (radioimmunoassay); format: cell-based, mice; conditions: for inhibition of the increase of cGMP production: increase caused by AngII + CV11974; for Angiotensin II-induced cGMP production in isolated aorta: mean ± SE
Source text: Then, AngII-induced cGMP production in isolated aortic vessels was compared between transgenic and wild-type mice in order to examine whether or not vasodilator action of AngII is mediated by cGMP. After abdominal incision of each mouse, the abdominal aorta was isolated and the aortic extract homogenized by sonication in ethanol was dried in nitrogen and treated with an acetylation reagent (acetic anhydride : triethylamine = 1:2) and then assayed for cGMP level by radioimmunoassay using an anti cGMP antibody (Table 3). […]

[3] = test system: kininogenase; experiment: Angiotensin II-induced kininogenase activity in isolated aorta (radioimmunoassay); format: biochemical, mice; conditions: for inhibition of the increase of kininogenase activity: increase caused by AngII + CV11974; for Angiotensin II-induced kininogenase activity in isolated aorta: mean ± SE
Protocol: Then, the activity of kininogenase, which is an enzyme for producing bradykinin from kinonogen, was compared between transgenic and wild-type mice in isolated aortic vessels. After abdominal incision of each mouse, the abdominal aorta was isolated and the aortic extract homogenized in the presence of 0.1 M phosphate buffer (0.2% bacitracin, 3 mM O-phenanthroline, 30 mM EDTA-Na2) containing a protease inhibitor was dried in nitrogen under 90% ethanol. The dried extract was solubilized in a buffer containing an angiotensin-converting enzyme inhibitor and tested for kininogenase activity by radioimmunoassay of […] produced from bovine kininogen as a substrate (Table 4).

[4] = Blood pressure change after continuous administration of angiotensin II (tail-cuff method); format: in vivo, mice; conditions: for Average blood pressure under administration of angiotensin II: AngII 0.7 mg/day/kg via osmotic pump, mean ± SE
Protocol: Change of average awaking blood pressure induced by chronic administration of angiotensin II (AngII) was compared between transgenic and wild-type mice. AngII (0.7 mg/day/kg) was chronically administered via an osmotic pump embedded in the back of each mouse, and the blood pressure of the mouse was measured at the tail by the tail-cuff method (Table 1). […]

[5] = AT2-TG mice, in the presence of AngII + CV11974 (AT2 receptor stimulation)
[6] = wild-type mice, in the presence of AngII + CV11974 (AT2 receptor stimulation)

Cc1cc(Cn2cnc3c2CC(C(=O)O)N(C(=O)C(c2ccccc2)c2ccccc2)C3)ccc1N(C)C.O.O=C(O)C(F)(F)F.O=C(O)C(F)(F)F (stereo not shown) [PD123319, 1-[[4-(dimethylamino)-3-methylphenyl]methyl]-5-(diphenylacetyl)-4,5,6,7-tetrahydro-1H-imidazo[4,5-c]pyridine-6-carboxylic acid ditrifluoroacetate monohydrate]
increase of AngII-induced contraction of isolated aorta ([1]; AT2-TG mice, in the presence of PD123319 compared with its absence): about 24% | Angiotensin II-induced vasoconstriction ([1]; AT2-TG mice, with PD123319, relative to its absence): 124±2.1 % of control | Angiotensin II-induced vasoconstriction ([1]; Wild-type mice, with PD123319, relative to its absence): 98±1.1 % of control | change of AngII-induced contraction ([1]; wild-type mice, in the presence of PD123319): no contraction change

CCOc1nc2cccc(C(=O)O)c2n1Cc1ccc(-c2ccccc2-c2nnn[nH]2)cc1 (racemic) [CV11974]
increase of amount of cGMP produced in isolated aorta [2, 5]: 105% | change of amount of cGMP produced in isolated aorta [2, 6]: did not change | increase of kininogenase activity in isolated aorta [3, 5]: 150% | change of kininogenase activity in isolated aorta [3, 6]: did not change

COC(=O)[C@@H](N)CCCNC(=N)N[N+](=O)[O-] [L-NAME]
inhibition of the increase of cGMP production ([2]; AT2-TG mice): completely inhibited | inhibition of the increase of kininogenase activity ([3]; AT2-TG mice): completely inhibited

Angiotensin II [AngII, vasopressor whose action is mediated through receptor subtypes AT1 and AT2]
Angiotensin II-induced cGMP production in isolated aorta ([2]; AT2-TG mice): 330±41 fmol/gwt | Angiotensin II-induced cGMP production in isolated aorta ([2]; Wild-type mice): 328±14 fmol/gwt | Average blood pressure under administration of angiotensin II ([4]; AT2-TG mice, Day 0): 85±1.8 mmHg | Average blood pressure under administration of angiotensin II ([4]; AT2-TG mice, Day 4): 84±2.7 mmHg | Average blood pressure under administration of angiotensin II ([4]; AT2-TG mice, Day 7): 87±2.1 mmHg | Average blood pressure under administration of angiotensin II ([4]; AT2-TG mice, Day 14): 89±2.6 mmHg | blood pressure change ([4]; AT2-TG mice, after 2 weeks, AngII 0.7 mg/day/kg): no blood pressure change | Average blood pressure under administration of angiotensin II ([4]; Wild-type mice, Day 0): 83±2.7 mmHg | Average blood pressure under administration of angiotensin II ([4]; Wild-type mice, Day 4): 94±2.1 mmHg | Average blood pressure under administration of angiotensin II ([4]; Wild-type mice, Day 7): 114±2.8 mmHg | Average blood pressure under administration of angiotensin II ([4]; Wild-type mice, Day 14): 121±3.2 mmHg | increase in average blood pressure ([4]; wild-type mice, after 2 weeks, AngII 0.7 mg/day/kg): 38 mmHg | Angiotensin II-induced kininogenase activity in isolated aorta ([3]; AT2-TG mice): 0.76±0.07 ng kinin/mg/h | Angiotensin II-induced kininogenase activity in isolated aorta ([3]; Wild-type mice): 0.68±0.11 ng kinin/mg/h | Angiotensin II-induced vasoconstriction ([1]; AT2-TG mice, without or with PD123319): 100±0.2 % of control | Angiotensin II-induced vasoconstriction ([1]; Wild-type mice, without or with PD123319): 100±0.7 % of control

icatibant
inhibition of the increase of cGMP production ([2]; AT2-TG mice): completely inhibited | inhibition of the increase of kininogenase activity ([3]; AT2-TG mice): completely inhibited
